The values that follow come from publication PMC3111459 (Breast cancer research and treatment, 2011).

Data set [1] can be described thus: clinical. To be noted: human, in vivo.
Data set [2] has as its system OATP1B3. The following applies: in vitro; cited from earlier work.
Data set [3] concerns OAT2. To be noted: in vitro; cited from earlier work.
For data set [4] the following is noted: human, in vivo.
Data set [5] is described as follows: clinical. To be noted: human, in vivo. The source holds these as a separate data set.

In turn, `CC(=O)O[C@@]12CO[C@@H]1C[C@H](O)[C@@]1(C)C(=O)[C@H](O)C3=C(C)[C@@H](OC(=O)[C@H](O)[C@@H](NC(=O)OC(C)(C)C)c4ccccc4)C[C@@](O)([C@@H](OC(=O)c4ccccc4)[C@H]21)C3(C)C` [Docetaxel] had a clearance in data set [1] (CL) of 272 mL/min. Moreover, in data set [1] (T1/2), the half-life is 45.1 ± 20 h. Moreover, the “substrate for liver OATP1B3” value in data set [2] is reported as “substrates for liver OATP1B3”. In addition, the “substrate for liver OAT2” value in data set [3] is listed as “substrate for liver OAT2”. In addition, in data set [4], the CL is given as 18.1 ± 4.35(7) l/h and the T1/2 was 60.2 ± 31.0(7) h.
As to `Cc1ccc(NC(=O)c2ccc(CN3CCN(C)CC3)cc2)cc1Nc1nccc(-c2cccnc2)n1` [Imatinib], the Tmax in data set [5] was determined as 5 h.
